# In patent EP0373994A1, “Mutants of simian transforming growth factor-beta 1” (ONCOGEN LIMITED PARTNERSHIP, priority 1988, dated 1990):
# Read-outs that look alike come from different tables or passages of the source.
# Columns and labels:
# [1] = system: TGF-β1 secretion by CHO cell line TGF-β3-2000 clone 17; experiment: Secretion of TGF-β1 by transfected CHO cells treated with glycosylation inhibitors (pulse-chase, densitometry); format: cell-based, Chinese hamster
# [2] = system: proteolytic processing of TGF-β1 precursor in TGF-β3-2000 clone 17 CHO cells; experiment: Proteolytic processing of TGF-β1 precursor in CHO cells treated with weak bases or ionophore; format: cell-based, Chinese hamster
# [3] = target: T1, CHO cells overexpressing the human IGF-II/man6P receptor (Homo sapiens, UniProt P11717); experiment: Binding to CHO cells overexpressing the receptor
# T1 construct: expressed in transfected cells; host or cells: CHO cells
# Description: Binding and internalization studies with transfected and control CHO cells were performed in 24-well culture plates. Confluent cells were washed and incubated for 5 hours at 4°C with the labeled ligand in 0.3 ml of binding buffer (100 mM Hepes, pH 7.6, 120 mM NaCl, 1.2 mM MgSO₄, 15 mM sodium acetate, 5 mM glucose). Cells were then washed twice, lysed with 0.1% sodium docecyl sulfate and counted. For the internalization studies, labeled ligand was added to the cells in serum-free Ham's F-12 medium containing 0.1% bovine serum albumin and 20 mM Hepes, pH 7.6. After the indicated periods of time at 37°C, the cells were put on ice and washed with pre-cooled Hepes buffered saline containing 0.3 mM CaCl₂. […] The cells were then washed, solubilized, and counted as above.
# [4] = target: T2, IGF-II/man6P receptor on adipocytes (Rattus norvegicus, UniProt G3V824); experiment: Binding to rat adipocytes with or without insulin pretreatment; details: 3mM, read-out: inhibition of TGF-β1 precursor binding
# T2 construct: from tissue; host or cells: primary adipocytes from epididymal fat pads of male Sprague-Dawley rats
# Description: The epididymal fat pads from male Sprague-Dawley rats (180-220 g) were excised, minced, and collagenase-digested as described (Rodberg, 1964, J. Biol. Chem. 239:375-380). The isolated adipocytes were pre-incubated with or without 1 µM insulin for 10 min at 37°C in 0.7 ml Krebs-Ringer buffer (107 mM NaCl, 5mM KCl, 3mM CaCl₂, 1mM MgSO₄, 7 mM NaHCO₃, 10 mM glucose, and 20 mM Hepes, pH 7.8) with 3% bovine serum albumin. The indicated labeled ligand was added and the incubations continued for 45 minutes at 37°. The cells were separated from the media by centrifugation through silicon oil and the radioactivity in the cell layer counted.
# [5] = target: human mannose 6-phosphate/IGF-II receptor (Homo sapiens, UniProt P11717); experiment: Solid phase receptor assay, binding of 125I-TGF-β1 precursor to purified receptor
# Chain of human mannose 6-phosphate/IGF-II receptor (P11717 41-2491): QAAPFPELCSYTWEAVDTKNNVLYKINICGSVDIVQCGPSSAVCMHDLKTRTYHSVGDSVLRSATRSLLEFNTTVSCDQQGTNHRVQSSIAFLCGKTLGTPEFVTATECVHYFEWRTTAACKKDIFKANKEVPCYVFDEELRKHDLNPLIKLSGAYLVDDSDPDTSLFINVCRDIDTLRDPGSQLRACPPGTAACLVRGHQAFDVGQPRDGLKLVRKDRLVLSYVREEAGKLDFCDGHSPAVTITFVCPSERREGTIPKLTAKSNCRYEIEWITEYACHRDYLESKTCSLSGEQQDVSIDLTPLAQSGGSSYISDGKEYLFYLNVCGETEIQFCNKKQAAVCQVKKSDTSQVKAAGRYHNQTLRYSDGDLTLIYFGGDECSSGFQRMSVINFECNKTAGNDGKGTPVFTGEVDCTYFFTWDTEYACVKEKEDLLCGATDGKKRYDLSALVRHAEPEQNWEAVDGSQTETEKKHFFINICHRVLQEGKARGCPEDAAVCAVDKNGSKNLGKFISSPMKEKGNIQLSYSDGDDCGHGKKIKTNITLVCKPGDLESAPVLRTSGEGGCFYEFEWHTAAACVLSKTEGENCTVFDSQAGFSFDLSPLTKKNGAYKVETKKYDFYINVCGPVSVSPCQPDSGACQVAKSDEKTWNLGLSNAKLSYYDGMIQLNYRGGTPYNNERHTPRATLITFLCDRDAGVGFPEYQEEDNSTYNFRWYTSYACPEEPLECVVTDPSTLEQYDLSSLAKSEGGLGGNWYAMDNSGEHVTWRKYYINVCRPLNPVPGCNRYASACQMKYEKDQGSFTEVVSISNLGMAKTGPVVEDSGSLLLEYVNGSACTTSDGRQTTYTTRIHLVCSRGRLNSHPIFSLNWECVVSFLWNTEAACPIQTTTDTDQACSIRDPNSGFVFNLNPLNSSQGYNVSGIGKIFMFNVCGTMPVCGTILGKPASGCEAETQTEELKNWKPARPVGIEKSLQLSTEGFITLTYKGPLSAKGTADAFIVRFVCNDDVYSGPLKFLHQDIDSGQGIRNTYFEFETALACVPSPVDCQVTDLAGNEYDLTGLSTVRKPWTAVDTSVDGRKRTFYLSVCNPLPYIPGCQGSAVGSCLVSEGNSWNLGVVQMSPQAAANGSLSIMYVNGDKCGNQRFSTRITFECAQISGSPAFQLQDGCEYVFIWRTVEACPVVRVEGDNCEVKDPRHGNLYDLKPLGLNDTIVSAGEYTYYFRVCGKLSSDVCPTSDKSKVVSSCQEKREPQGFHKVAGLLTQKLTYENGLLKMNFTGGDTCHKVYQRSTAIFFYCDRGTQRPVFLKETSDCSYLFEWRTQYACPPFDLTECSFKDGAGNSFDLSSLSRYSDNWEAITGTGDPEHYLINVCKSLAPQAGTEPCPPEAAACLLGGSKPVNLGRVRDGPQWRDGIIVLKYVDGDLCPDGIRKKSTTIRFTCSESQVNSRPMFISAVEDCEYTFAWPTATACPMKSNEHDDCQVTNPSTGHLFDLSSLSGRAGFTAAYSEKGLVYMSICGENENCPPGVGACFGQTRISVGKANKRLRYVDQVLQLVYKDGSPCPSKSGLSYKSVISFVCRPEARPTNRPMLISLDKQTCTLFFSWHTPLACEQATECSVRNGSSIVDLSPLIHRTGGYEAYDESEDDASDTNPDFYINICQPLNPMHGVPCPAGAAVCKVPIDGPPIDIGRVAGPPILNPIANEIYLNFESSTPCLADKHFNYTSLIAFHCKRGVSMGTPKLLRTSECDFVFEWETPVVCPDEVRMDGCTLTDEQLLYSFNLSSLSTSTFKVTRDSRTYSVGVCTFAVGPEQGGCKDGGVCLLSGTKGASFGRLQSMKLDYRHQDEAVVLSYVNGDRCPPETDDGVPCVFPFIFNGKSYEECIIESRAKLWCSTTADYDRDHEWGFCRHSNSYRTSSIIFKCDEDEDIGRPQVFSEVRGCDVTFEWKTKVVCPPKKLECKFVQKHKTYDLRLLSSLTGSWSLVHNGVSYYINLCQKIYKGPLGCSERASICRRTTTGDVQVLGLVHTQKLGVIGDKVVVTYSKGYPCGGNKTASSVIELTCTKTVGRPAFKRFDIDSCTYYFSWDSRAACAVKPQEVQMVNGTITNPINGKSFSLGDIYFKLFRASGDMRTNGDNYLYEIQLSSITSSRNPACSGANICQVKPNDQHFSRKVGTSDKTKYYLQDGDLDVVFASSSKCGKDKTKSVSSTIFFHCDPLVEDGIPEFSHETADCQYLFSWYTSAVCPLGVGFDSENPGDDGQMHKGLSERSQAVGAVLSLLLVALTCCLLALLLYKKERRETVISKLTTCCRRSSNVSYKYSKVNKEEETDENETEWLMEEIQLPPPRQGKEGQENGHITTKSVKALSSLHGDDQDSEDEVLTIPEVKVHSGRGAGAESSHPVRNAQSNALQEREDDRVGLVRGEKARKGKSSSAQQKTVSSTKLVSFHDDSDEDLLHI
# T1 sequence (P11717 41-2491): as above
# T2 sequence (G3V824 36-2481): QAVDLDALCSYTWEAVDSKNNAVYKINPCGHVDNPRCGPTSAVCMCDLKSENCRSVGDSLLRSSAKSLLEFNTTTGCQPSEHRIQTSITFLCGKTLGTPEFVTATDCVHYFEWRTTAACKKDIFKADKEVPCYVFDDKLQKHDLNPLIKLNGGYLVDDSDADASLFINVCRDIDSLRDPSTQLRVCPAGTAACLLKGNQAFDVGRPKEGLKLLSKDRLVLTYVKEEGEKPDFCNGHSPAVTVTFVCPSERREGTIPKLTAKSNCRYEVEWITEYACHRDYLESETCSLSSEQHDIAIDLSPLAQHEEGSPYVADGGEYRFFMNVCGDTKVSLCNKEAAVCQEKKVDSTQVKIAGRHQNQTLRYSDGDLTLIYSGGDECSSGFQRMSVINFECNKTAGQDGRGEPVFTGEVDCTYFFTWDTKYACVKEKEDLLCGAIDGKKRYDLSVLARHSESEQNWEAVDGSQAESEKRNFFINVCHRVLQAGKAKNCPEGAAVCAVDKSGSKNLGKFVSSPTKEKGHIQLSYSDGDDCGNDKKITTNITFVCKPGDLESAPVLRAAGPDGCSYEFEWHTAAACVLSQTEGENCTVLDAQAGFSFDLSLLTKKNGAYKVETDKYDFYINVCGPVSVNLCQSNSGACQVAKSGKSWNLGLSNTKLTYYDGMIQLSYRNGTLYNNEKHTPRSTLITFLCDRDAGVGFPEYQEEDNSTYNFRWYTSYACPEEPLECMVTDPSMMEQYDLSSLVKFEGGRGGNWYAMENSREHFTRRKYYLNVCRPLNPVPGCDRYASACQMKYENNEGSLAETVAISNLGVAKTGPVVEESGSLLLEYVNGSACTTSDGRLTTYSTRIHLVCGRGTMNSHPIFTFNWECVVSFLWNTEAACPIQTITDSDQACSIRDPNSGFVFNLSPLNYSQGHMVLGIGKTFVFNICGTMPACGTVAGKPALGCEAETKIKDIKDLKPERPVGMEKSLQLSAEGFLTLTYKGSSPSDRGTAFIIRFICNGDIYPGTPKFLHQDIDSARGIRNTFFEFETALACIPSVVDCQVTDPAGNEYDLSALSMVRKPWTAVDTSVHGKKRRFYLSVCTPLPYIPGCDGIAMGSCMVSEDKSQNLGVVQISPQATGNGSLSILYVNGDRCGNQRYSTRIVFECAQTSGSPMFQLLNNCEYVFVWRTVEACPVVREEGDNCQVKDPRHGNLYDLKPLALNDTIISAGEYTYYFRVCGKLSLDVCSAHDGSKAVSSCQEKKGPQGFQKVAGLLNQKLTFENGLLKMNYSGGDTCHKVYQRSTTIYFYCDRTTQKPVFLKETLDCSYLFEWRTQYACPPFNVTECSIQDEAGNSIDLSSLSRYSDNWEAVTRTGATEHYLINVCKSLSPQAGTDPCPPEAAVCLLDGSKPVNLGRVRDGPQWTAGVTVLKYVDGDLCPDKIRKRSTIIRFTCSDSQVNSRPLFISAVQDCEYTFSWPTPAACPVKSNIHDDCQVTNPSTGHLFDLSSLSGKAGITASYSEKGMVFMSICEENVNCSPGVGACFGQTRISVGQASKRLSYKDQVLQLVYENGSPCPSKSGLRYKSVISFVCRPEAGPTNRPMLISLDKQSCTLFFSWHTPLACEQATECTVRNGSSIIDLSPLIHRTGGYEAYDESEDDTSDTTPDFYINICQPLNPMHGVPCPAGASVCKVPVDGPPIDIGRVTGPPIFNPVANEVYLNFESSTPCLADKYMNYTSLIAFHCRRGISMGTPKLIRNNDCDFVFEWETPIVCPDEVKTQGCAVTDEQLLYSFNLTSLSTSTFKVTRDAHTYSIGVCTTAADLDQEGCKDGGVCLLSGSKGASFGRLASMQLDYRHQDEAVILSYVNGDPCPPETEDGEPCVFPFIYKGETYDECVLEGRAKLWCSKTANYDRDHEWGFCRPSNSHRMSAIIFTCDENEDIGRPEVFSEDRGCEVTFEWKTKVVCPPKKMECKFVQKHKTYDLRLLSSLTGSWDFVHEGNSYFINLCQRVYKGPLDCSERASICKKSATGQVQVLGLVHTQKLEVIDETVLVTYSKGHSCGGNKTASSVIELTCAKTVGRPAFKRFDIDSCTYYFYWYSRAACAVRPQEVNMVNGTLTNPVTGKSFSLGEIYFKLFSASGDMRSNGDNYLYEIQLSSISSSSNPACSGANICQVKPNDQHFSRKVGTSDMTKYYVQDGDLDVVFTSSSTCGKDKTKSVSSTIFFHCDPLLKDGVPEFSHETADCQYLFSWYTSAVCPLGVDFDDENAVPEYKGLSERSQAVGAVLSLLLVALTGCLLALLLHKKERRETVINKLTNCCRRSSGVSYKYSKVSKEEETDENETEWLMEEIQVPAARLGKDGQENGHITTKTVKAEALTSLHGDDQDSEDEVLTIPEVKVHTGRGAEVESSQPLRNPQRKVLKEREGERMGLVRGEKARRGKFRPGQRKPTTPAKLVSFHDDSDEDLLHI
compound,measurement,setting,value
"O[C@H]1[C@H](O)[C@@H](O)CN2CC[C@H](O)[C@H]12 [CA, castanospermine]",activity at 520 µM,"[1]; Cricetulus griseus, CHO, 6 h, read-out: level of secretion relative to control cells",5 to 15%
"CCN(CC)CCCC(C)Nc1ccnc2cc(Cl)ccc12 (stereo not drawn) [Chloroquine, Chloroquine diphosphate]",activity at 200 µM,"[2]; Cricetulus griseus, CHO, 6 h chase, 10mM ammonium chloride, 200 µM chloroquine, 1 µM monensin, read-out: cleavage efficiency (proteolytic processing) relative to control values",~20%
"O=P(O)(O)OC1O[C@H](CO)[C@@H](O)[C@H](O)[C@@H]1O (stereo partly drawn) [Mannose 1-phosphate, mannose 1-phosphate]",times less effective than man6P at inhibiting binding of the TGF-β1 precursor,[3]; FIG. 37A,"at least 1,000 times"
"O[C@H]1[C@H]2[C@H](O)CCCN2C[C@H]1O [SW, swainsonine]",activation at 230 µM,"[1]; Cricetulus griseus, CHO, 6 h, read-out: increase in levels of secreted recombinant proteins",~30%
"OC[C@H]1NC[C@@H](O)[C@@H](O)[C@@H]1O [dMM, 1-deoxymannojirimycin]",activation at 4000 µM,"[1]; Cricetulus griseus, CHO, 6 h chase, 0.23 mM SW, 4 mM dMM, read-out: increase in levels of secreted recombinant proteins",~30%
"OC[C@H]1NC[C@H](O)[C@@H](O)[C@@H]1O [dN, 1-deoxynojirimycin]",activity at 4000 µM,"[1]; Cricetulus griseus, CHO, 6 h chase, 6 µM TU, 0.52 mM CA, 4 mM dN, read-out: level of secretion relative to control cells",5 to 15%
O=P(O)(O)OC[C@H]1OC(O)[C@@H](O)[C@@H](O)[C@@H]1O (stereo partly drawn) [mannose 6-phosphate],inhibition at 3000 µM,[4]; control adipocytes,65%
same,inhibition at 3000 µM,[4]; insulin-treated adipocytes,81%
same,inhibition at 50 µM,"[5]; 50µM competitor, read-out: inhibition of 125I-labeled TGF-β1 precursor binding to purified receptor",90%
same,IC50,[5]; read-out: half-maximal inhibition of binding to the isolated receptor,8 µM
same,IC50,"[3]; FIG. 37A, read-out: half-maximal inhibition of TGF-β1 precursor binding to transfected CHO cells",10 µM
same,IC50,[3]; read-out: half-maximal inhibition of rTGF-β1 precursor binding to transfected CHO cells,10 µM
CC[C@@]1([C@@H]2O[C@@H]([C@H]3O[C@@](O)(CO)[C@H](C)C[C@@H]3C)C[C@@H]2C)CC[C@H]([C@]2(C)CC[C@]3(C[C@H](O)[C@@H](C)[C@@H]([C@@H](C)[C@@H](OC)[C@H](C)C(=O)O)O3)O2)O1 [monensin],cleavage efficiency (proteolytic processing) relative to control values,[2],~20%
ammonium chloride,cleavage efficiency (proteolytic processing) relative to control values,"[2]; 6 h chase, 10mM ammonium chloride, 200 µM chloroquine, 1 µM monensin",about 70%
tunicamycin,level of secretion relative to control cells,"[1]; 6 h chase, 6 µM TU, 0.52 mM CA, 4 mM dN",5-15%
